Here are results for 18 compounds from patent US12637471B2, “Heterocyclic compounds, compositions, methods of preparation and uses thereof” (Organon R&D Finland Ltd, priority 2021, dated 2026).

Common to all, as to format: biochemical
For assay [1], the target named is T1, 17β-Hydroxysteroid Dehydrogenase Type 2 Enzyme (17β-HSD2) (Homo sapiens, UniProt P37059).
T1 construct: made in house; host or cells: Sf-9 insect cells (baculovirus)
T1 sequence (P37059 1-387): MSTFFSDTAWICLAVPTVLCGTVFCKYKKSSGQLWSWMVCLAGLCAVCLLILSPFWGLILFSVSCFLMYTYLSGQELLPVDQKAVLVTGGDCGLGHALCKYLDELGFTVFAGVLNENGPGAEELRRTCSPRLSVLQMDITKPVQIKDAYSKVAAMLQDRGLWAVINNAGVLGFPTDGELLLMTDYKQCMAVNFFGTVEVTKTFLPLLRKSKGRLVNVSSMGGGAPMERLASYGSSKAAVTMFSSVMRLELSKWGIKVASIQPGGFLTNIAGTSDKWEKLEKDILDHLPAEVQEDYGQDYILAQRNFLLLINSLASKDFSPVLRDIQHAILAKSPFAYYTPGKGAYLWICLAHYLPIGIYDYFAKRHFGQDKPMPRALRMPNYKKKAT
Nature of the assay: Inhibition of the 17β-hydroxysteroid dehydrogenase type 2 enzyme, 3H-testosterone conversion. The settings on record: inhibitor at 10 μM. The procedure, abridged: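 Single-point screen at 10 μM inhibitor, 1% DMSO: Sf-9-expressed human enzyme (105 nM), NAD 1 mM, ³H-labelled testosterone 56.25 nM, pH 8.5 phosphate/EDTA buffer, 30 min, room temperature. After TCA quench, substrate and product radioactivity quantified by UPLC with scintillation detection; inhibition percent from conversion.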

The target of assay [2] is T2, Recombinant human aldo-keto reductase family 1 member C2 (AKR1C2) protein (Homo sapiens, UniProt P52895).
T2 construct: made in house; host or cells: Sf-9 insect cells (baculovirus)
T2 sequence (P52895 1-323): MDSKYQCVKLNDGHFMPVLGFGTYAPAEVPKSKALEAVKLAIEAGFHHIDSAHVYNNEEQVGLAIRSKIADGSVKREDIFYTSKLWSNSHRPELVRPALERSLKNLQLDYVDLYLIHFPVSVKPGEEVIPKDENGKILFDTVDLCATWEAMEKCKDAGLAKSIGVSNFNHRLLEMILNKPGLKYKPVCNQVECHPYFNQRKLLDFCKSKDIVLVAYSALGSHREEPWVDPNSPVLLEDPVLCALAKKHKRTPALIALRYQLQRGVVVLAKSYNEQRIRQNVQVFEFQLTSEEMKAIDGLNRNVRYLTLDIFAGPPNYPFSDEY
Kind of assay: Inhibition of the aldo-keto reductase family 1 member C2, 3H-dihydrotestosterone conversion. The settings on record: inhibitor at 10 μM. The procedure, abridged: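 Single-point screen at 10 μM inhibitor, 1% DMSO: [3H]DHT (6.25 nM) reduction to 3α-diol by baculovirus-made AKR1C2 (13.6 nM), pH 7.4 phosphate buffer, 1 mM NADPH, 37 °C for 45 min. Radio-UPLC quantified product versus substrate to give percent inhibition.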

The target of assay [3] is T3, Recombinant human AKR1C3 (17β-HSD5) protein (Homo sapiens, UniProt P42330).
T3 construct: made in house; host or cells: E. coli
T3 sequence (P42330 1-323): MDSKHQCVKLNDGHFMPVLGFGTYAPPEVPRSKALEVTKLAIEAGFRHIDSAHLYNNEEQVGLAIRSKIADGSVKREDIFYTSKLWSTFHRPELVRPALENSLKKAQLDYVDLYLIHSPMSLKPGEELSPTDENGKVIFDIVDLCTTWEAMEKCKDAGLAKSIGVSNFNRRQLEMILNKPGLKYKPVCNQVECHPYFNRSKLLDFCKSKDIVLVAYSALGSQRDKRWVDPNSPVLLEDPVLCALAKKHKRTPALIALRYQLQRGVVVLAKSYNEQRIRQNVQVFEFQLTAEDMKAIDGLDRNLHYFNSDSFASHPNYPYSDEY
Kind of assay: Inhibition of AKR1C3 (17β-hydroxysteroid dehydrogenase type 5) enzyme, fluorescence assay. The settings on record: inhibitor at 500 nM. The procedure, abridged: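 Percent inhibition at 500 nM compound, derived from substrate conversion; product alcohol measured by fluorescence (ex 420, em 510 nm) against a 1 μM–10 nM standard curve. Reaction: 27 nM recombinant AKR1C3, 1 μM ketone substrate, 1 mM NADPH, phosphate/EDTA buffer pH 7.4, 1% DMSO, RT for 60–120 min.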

One may read the inhibition as the drop in the measured response relative to a control, in per cent.

Take `COC1CCN(C(=O)N2CCC(=C(C#N)c3cccc4[nH]ncc34)CC2)CC1` [Compound 144, 2-(1H-indazol-4-yl)-2-(1-(4-methoxypiperidine-1-carbonyl)piperidin-4-ylidene)acetonitrile]: the inhibition at 10 µM in assay [1] came to 16%; in assay [2] it was 5%. The inhibition at 0.5 µM in assay [3] worked out at 100%.
For `N#CC(=C1CCN(C(=O)N2CCC(C(F)(F)F)CC2)CC1)c1cccc2[nH]ncc12` [Compound 145, 2-(1H-indazol-4-yl)-2-(1-(4-(trifluoromethyl)piperidine-1-carbonyl)piperidin-4-ylidene) acetonitrile] the same measures were 9%, 1% and 97%.
Take `COC1CCN(C(=O)N2CCC(=C(C#N)c3ccc(C(F)(F)F)cc3)CC2)CC1` [Compound 146, 2-(1-(4-methoxypiperidine-1-carbonyl)piperidin-4-ylidene)-2-(4-(trifluoromethyl)phenyl)acetonitrile]: the figures for the inhibition at 10 µM in assay [1] and in assay [2] were 15% and 2%, respectively. Further, the inhibition at 0.5 µM in assay [3] came to 100%.
For `N#CC(=C1CCN(C(=O)N2CCOCC2)CC1)c1ccc(C(F)(F)F)cc1` [Compound 147, 2-(1-(morpholine-4-carbonyl)piperidin-4-ylidene)-2-(4-(trifluoromethyl)phenyl)acetonitrile] the same measures were 4%, 5% and 99%.
Take `N#CC(=C1CCN(C(=O)N2CCC(S(N)(=O)=O)CC2)CC1)c1ccc(C(F)(F)F)cc1` [Compound 148, 1-(4-(cyano(4-(trifluoromethyl)phenyl)methylene)piperidine-1-carbonyl)piperidine-4-sulfonamide]: the inhibition at 10 µM was found to be 7% in assay [1] and 6% in assay [2]. Also, the inhibition at 0.5 µM in assay [3] was found to be 90%.
Taken in the same sequence, the figures for `N#CC(=C1CCN(C(=O)N2CCC(CCO)CC2)CC1)c1ccc(C(F)(F)F)cc1` [Compound 149, 2-(1-(4-(2-hydroxyethyl)piperidine-1-carbonyl)piperidin-4-ylidene)-2-(4-(trifluoromethyl)phenyl)acetonitrile] were 9%, 7% and 94%.
On to `N#CC(=C1CCN(C(=O)N2CCn3nncc3C2)CC1)c1ccc(C(F)(F)F)cc1` [Compound 150, 2-(1-(4,5,6,7-tetrahydro-[1,2,3]triazolo[1,5-a]pyrazine-5-carbonyl)piperidin-4-ylidene)-2-(4-(trifluoromethyl)phenyl)acetonitrile], for which the inhibition at 10 µM in assay [1] worked out at 6%; in assay [2], 21%. Moreover, the inhibition at 0.5 µM in assay [3] stood at 100%.
For `CC(O)C1CCN(C(=O)N2CCC(=C(C#N)c3ccc(C(F)(F)F)cc3)CC2)CC1` (stereo not drawn) [Compound 151, 2-(1-(4-(1-hydroxyethyl)piperidine-1-carbonyl)piperidin-4-ylidene)-2-(4-(trifluoromethyl)phenyl)acetonitrile] the same measures were 18%, 11% and 93%.
As to `N#CC(=C1CCN(C(=O)N2CCn3ncnc3C2)CC1)c1ccc(C(F)(F)F)cc1` [Compound 152, 2-(1-(5,6,7,8-tetrahydro-[1,2,4]triazolo[1,5-a]pyrazine-7-carbonyl)piperidin-4-ylidene)-2-(4-(trifluoromethyl)phenyl)acetonitrile], the results for the inhibition at 10 µM in assay [1] and in assay [2] were 8% and 4%, respectively. In addition, in assay [3], the inhibition at 0.5 µM came to 99%.
Consider `COCC1CCN(C(=O)N2CCC(=C(C#N)c3cccc(Cl)c3)CC2)CC1` [Compound 153, 2-(3-chlorophenyl)-2-(1-(4-(methoxymethyl)piperidine-1-carbonyl)piperidin-4-ylidene)acetonitrile], for which the inhibition at 10 µM in assay [1] was 26%; in assay [2], 14%. For the same compound, the inhibition at 0.5 µM in assay [3] came out at 95%.
For `CC(O)C1CCN(C(=O)N2CCC(=C(C#N)c3cccc(Cl)c3)CC2)CC1` (stereo not drawn) [Compound 154, 2-(3-chlorophenyl)-2-(1-(4-(1-hydroxyethyl)piperidine-1-carbonyl)piperidin-4-ylidene)acetonitrile] the same measures were 26%, 14% and 98%.
Taken in the same sequence, the figures for `N#CC(=C1CCN(C(=O)N2CCn3nncc3C2)CC1)c1cccc(Cl)c1` [Compound 155, 2-(3-chlorophenyl)-2-(1-(4,5,6,7-tetrahydro-[1,2,3]triazolo[1,5-a]pyrazine-5-carbonyl)piperidin-4-ylidene)acetonitrile] were 19%, 21% and 99%.
As to `N#CC(=C1CCN(C(=O)N2C3CCC2COC3)CC1)c1cccc(Cl)c1` [Compound 156, 2-(1-(3-oxa-8-azabicyclo[3.2.1]octane-8-carbonyl)piperidin-4-ylidene)-2-(3-chlorophenyl)acetonitrile], the inhibition at 10 µM in assay [1] was determined as 12%; in assay [2], 8%. Moreover, in assay [3], the inhibition at 0.5 µM worked out at 99%.
For `N#CC(=C1CCN(C(=O)N2CCn3ncnc3C2)CC1)c1cccc(Cl)c1` [Compound 157, 2-(3-chlorophenyl)-2-(1-(5,6,7,8-tetrahydro-[1,2,4]triazolo[1,5-a]pyrazine-7-carbonyl)piperidin-4-ylidene)acetonitrile] the same measures were 8%, 2% and 99%.
In the case of `N#CC(=C1CCN(C(=O)N2CCc3nocc3C2)CC1)c1cc(F)cc(F)c1` [Compound 158, 2-(3,5-difluorophenyl)-2-(1-(4,5,6,7-tetrahydroisoxazolo[4,3-c]pyridine-5-carbonyl)piperidin-4-ylidene)acetonitrile], the values for the inhibition at 10 µM in assay [1] and in assay [2] were -4% and 22%, respectively. Also, the inhibition at 0.5 µM in assay [3] was determined as 101%.
For `N#CC(=C1CCN(C(=O)N2CCc3nocc3C2)CC1)c1ccc(OC(F)(F)F)cc1` [Compound 159, 2-(1-(4,5,6,7-tetrahydroisoxazolo[4,3-c]pyridine-5-carbonyl)piperidin-4-ylidene)-2-(4-(trifluoromethoxy)phenyl)acetonitrile] the same measures were 1%, 14% and 100%.
For `N#CC(=C1CCN(C(=O)N2CCc3nocc3C2)CC1)c1ccc(Cl)s1` [Compound 160, 2-(5-chlorothiophen-2-yl)-2-(1-(4,5,6,7-tetrahydroisoxazolo[4,3-c]pyridine-5-carbonyl)piperidin-4-ylidene)acetonitrile] the same measures were 18%, 34% and 99%.
Turning to `N#CC(=C1CCN(C(=O)N2CCc3nocc3C2)CC1)c1ccc(Cl)cn1` [Compound 161, 2-(5-chloropyridin-2-yl)-2-(1-(4,5,6,7-tetrahydroisoxazolo[4,3-c]pyridine-5-carbonyl)piperidin-4-ylidene)acetonitrile], the inhibition at 10 µM in assay [1] came out at 7%; in assay [2] it was 19%. Besides, the inhibition at 0.5 µM in assay [3] was 98%.
